Measured values reported in patent US10660877B2 (BRISTOL-MYERS SQUIBB COMPANY, priority 2016, dated 2020).
Like-named read-outs stand apart in the source and are kept apart here.

Key:
human TLR9 = human TLR9 (Homo sapiens (Human), UniProt Q9NR96); assay: TLR9 inhibition reporter assay (HEK-Blue cells, SEAP reporter, ODN2006 stimulation);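 further: compounds tested over 0.05 nM to 50 µM, 22 h incubation, inhibition taken as SEAP signal drop from agonist plus DMSO wells toward a known inhibitor control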
human TLR8 = human TLR8 (Homo sapiens (Human), UniProt Q9NR97); assay: TLR8 inhibition reporter assay (HEK-Blue cells, SEAP reporter, R848 stimulation);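 further: compounds tested from 0.05 nM to 50 µM, 22 h at 37 °C, SEAP measured with HEK-Blue Detection, inhibition relative to agonist plus DMSO versus a known inhibitor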
human TLR7 = human TLR7 (Homo sapiens (Human), UniProt Q9NYK1); assay: TLR7 inhibition reporter assay (HEK-Blue cells, SEAP reporter, gardiquimod stimulation); format: cell-based
[1] = read-out: TLR9 IC50, HEK-Blue cells overexpressing human TLR9, ODN2006 5 nM
[2] = read-out: TLR8 IC50, HEK-Blue cells overexpressing human TLR8, R848 15.9 μM
[3] = HEK-Blue cells overexpressing human TLR7, gardiquimod 7.5 μM
[4] = read-out: TLR9 IC50, HEK-Blue cells, ODN2006 5 nM
[5] = read-out: TLR8 IC50, HEK-Blue cells, R848 15.9 μM
[6] = HEK-Blue cells, gardiquimod 7.5 μM

Sequence of human TLR8 (Q9NR97 27-1041): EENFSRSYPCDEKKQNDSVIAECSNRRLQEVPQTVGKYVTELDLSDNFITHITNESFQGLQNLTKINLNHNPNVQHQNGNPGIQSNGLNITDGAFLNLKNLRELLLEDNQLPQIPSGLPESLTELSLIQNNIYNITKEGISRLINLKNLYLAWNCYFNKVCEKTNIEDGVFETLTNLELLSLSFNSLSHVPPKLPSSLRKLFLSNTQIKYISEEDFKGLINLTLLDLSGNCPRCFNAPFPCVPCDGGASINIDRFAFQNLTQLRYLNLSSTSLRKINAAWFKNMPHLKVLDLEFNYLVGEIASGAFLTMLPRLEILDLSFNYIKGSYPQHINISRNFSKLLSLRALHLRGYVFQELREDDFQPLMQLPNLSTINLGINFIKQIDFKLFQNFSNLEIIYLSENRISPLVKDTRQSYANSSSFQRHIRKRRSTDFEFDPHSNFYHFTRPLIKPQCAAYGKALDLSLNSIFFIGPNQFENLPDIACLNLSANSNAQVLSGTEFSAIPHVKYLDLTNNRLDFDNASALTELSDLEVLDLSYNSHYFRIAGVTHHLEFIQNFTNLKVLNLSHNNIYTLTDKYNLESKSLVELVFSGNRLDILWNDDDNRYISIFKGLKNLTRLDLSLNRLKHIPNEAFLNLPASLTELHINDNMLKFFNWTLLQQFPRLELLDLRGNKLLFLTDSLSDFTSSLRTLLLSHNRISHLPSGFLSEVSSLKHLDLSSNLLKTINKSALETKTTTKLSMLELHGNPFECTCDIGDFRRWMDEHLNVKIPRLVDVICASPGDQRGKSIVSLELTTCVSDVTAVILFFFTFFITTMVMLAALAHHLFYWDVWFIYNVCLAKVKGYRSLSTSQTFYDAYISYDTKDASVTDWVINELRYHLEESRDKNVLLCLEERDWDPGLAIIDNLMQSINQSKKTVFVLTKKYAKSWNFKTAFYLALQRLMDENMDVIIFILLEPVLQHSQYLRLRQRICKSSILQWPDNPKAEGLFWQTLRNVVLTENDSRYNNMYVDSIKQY
Sequence of human TLR7 (Q9NYK1 27-1049): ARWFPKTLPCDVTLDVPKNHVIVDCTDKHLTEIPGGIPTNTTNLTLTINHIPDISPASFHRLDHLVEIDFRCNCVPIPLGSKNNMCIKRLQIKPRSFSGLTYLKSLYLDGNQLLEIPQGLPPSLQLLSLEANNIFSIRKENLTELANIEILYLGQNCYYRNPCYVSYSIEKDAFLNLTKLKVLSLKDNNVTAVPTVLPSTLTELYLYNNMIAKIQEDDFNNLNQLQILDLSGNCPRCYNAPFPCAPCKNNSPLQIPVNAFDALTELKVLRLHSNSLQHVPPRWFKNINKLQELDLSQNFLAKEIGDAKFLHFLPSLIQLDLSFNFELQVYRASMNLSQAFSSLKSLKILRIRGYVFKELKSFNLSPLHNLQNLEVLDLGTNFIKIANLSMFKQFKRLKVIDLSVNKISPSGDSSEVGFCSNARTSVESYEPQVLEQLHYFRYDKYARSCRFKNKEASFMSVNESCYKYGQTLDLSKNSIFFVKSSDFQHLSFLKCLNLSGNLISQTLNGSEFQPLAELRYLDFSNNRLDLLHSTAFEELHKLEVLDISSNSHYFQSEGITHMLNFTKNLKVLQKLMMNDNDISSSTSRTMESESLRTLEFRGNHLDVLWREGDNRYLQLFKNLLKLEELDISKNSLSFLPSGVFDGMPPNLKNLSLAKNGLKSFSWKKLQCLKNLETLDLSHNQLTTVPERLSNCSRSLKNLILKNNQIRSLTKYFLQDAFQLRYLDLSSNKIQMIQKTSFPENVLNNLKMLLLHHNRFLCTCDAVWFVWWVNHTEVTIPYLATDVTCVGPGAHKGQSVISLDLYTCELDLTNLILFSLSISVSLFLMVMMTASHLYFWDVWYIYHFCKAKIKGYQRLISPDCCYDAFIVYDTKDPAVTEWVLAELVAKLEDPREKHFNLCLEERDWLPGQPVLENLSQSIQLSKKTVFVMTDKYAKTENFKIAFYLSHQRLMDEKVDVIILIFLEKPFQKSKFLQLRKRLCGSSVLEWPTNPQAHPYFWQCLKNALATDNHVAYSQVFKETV
Sequence of human TLR9 (Q9NR96 26-1032): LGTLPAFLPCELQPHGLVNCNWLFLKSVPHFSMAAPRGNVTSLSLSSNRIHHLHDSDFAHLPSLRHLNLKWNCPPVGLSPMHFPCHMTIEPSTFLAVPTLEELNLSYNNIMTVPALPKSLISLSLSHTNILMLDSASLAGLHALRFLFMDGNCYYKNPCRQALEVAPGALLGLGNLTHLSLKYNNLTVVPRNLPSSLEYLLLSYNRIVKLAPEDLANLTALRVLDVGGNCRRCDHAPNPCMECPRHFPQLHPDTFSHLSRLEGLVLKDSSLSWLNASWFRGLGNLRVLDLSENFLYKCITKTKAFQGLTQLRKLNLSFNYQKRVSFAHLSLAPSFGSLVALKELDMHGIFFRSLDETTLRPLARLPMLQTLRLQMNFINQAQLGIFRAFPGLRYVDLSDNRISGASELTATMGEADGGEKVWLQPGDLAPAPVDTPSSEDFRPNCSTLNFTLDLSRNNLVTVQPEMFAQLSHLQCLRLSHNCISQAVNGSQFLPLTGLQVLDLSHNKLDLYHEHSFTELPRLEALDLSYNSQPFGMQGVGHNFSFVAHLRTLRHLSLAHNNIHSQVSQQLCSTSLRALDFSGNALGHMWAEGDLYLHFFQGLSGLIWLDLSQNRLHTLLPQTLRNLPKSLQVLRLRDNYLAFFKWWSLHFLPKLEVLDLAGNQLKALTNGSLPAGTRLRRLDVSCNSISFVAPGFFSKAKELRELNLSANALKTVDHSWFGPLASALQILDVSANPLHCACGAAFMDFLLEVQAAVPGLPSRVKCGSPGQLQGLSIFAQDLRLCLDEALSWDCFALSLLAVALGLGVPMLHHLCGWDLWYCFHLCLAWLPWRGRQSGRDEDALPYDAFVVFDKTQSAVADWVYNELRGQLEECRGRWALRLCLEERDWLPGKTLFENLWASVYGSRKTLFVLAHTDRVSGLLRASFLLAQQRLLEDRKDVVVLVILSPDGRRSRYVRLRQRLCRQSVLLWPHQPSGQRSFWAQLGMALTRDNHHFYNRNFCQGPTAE

| Compound | IC50 (human TLR9; [1]) [µM] | IC50 (human TLR8; [2]) [µM] | IC50 (human TLR7; [3]) [µM] | IC50 (human TLR9; [4]) [µM] | IC50 (human TLR8; [5]) [µM] | IC50 (human TLR7; [6]) [µM] | IC50 (human TLR9; TLR9 IC50, HEK-Blue cells overexpressing human TLR9, ODN2006 5 nM) [µM] | IC50 (human TLR8; TLR8 IC50, HEK-Blue cells overexpressing human TLR8, R848 15.9 μM) [µM] |
| --- | --- | --- | --- | --- | --- | --- | --- | --- |
| Cc1cc(-c2[nH]c3ccc(C4CCN(C5CCN(C(C)C)CC5)CC4)cc3c2C)ccn1 [Example 811, 5-(1′-isopropyl-[1,4′-bipiperidin]-4-yl)-3-methyl-2-(2-methylpyridin-4-yl)-1H-indole] |  |  |  | 0.023 | 0.0472 | 0.117 |  |  |
| Cc1cc(-c2[nH]c3ccc(C4CCN(C(=O)C5(N)COC5)CC4)cc3c2C(C)C)ccn1 [Example 634, (3-aminooxetan-3-yl)(4-(3-isopropyl-2-(2-methylpyridin-4-yl)-1H-indol-5-yl)piperidin-1-yl)methanone] | > 50 | 0.223 | 0.0735 |  |  |  |  |  |
| Cc1cc(-c2[nH]c3ccc(C4CCN(C(=O)C(C)(C)C#N)CC4)cc3c2C(C)C)ccn1 [Example 615, 3-(4-(3-isopropyl-2-(2-methylpyridin-4-yl)-1H-indol-5-yl)piperidin-1-yl)-2,2-dimethyl-3-oxopropanenitrile] | 12.2 | 0.243 | 0.0809 |  |  |  |  |  |
| CCc1c(-c2ccnc(-c3noc(N)n3)c2)[nH]c2ccc(C3CCNCC3)cc12 [Example 65, 3-(4-(3-ethyl-5-(piperidin-4-yl)-1H-indol-2-yl)pyridin-2-yl)-1,2,4-oxadiazol-5-amine] | 1.63 | 0.55 | 2.18 |  |  |  |  |  |
| CC(C)c1c(-c2ccnc(CN)c2)[nH]c2ccc(C3CCNCC3)cc12 [Example 14, (4-(3-isopropyl-5-(piperidin-4-yl)-1H-indol-2-yl)pyridin-2-yl)methanamine] | 1.2 | 0.187 | 0.423 |  |  |  |  |  |
| Cc1cc(-c2[nH]c3cc(F)c(C4CCN(C5CC(C)OC(C)C5)CC4)cc3c2C(C)C)cc(C)n1 (stereo not drawn) [Example 830, 2-(2,6-dimethylpyridin-4-yl)-5-(1-(2,6-dimethyltetrahydro-2H-pyran-4-yl)piperidin-4-yl)-6-fluoro-3-isopropyl-1H-indole] |  |  |  | 0.229 | 0.0173 | 0.0048 |  |  |
| CCc1c(-c2ccnc(C)c2)[nH]c2ccc(C3CCN(C(=O)NC4CCNCC4)CC3)cc12 [Example 845, 4-(3-ethyl-2-(2-methylpyridin-4-yl)-1H-indol-5-yl)-N-(piperidin-4-yl)piperidine-1-carboxamide] |  |  |  | 1.17 | 0.0929 | 0.148 |  |  |
| Cc1cc(-c2[nH]c3ccc(C4CCN(CC(=O)N(C)C)CC4)cc3c2CC(F)F)cc(C)n1 [Example 531, 2-(4-(3-(2,2-difluoroethyl)-2-(2,6-dimethylpyridin-4-yl)-1H-indol-5-yl)piperidin-1-yl)-N,N-dimethylacetamide] | 0.221 | 0.0639 | 0.0157 |  |  |  |  |  |
| Cc1cc(-c2[nH]c3ccc(C4CCN(C(=O)c5ccc6ccccn6c5=O)CC4)cc3c2C(C)C)cc(C)n1 [Example 145, 3-(4-(2-(2,6-dimethylpyridin-4-yl)-3-isopropyl-1H-indol-5-yl)piperidine-1-carbonyl)-4H-quinolizin-4-one] | > 50 | 0.347 | 0.0287 |  |  |  |  |  |

Other lines, results leading:

| IC50 (human TLR9; [1]) [µM] | IC50 (human TLR8; [2]) [µM] | IC50 (human TLR7; [3]) [µM] | IC50 (human TLR9; [4]) [µM] | IC50 (human TLR8; [5]) [µM] | IC50 (human TLR7; [6]) [µM] | IC50 (human TLR9; TLR9 IC50, HEK-Blue cells overexpressing human TLR9, ODN2006 5 nM) [µM] | IC50 (human TLR8; TLR8 IC50, HEK-Blue cells overexpressing human TLR8, R848 15.9 μM) [µM] | Compound |
| --- | --- | --- | --- | --- | --- | --- | --- | --- |
| 0.656 | 0.0259 | 0.0054 |  |  |  |  |  | Cc1cc(-c2[nH]c3ccc(C4CCN(C(=O)CN(C)CCF)CC4)cc3c2C(C)C)cc(C)n1 [Example 421, 1-(4-(2-(2,6-dimethylpyridin-4-yl)-3-isopropyl-1H-indol-5-yl)piperidin-1-yl)-2-((2-fluoroethyl)(methyl)amino)ethan-1-one] |
| 2.5 | 0.0918 | 0.0096 |  |  |  |  |  | Cc1cc(-c2[nH]c3ccc(C4CCN(C(=O)CN(C)C5CCOC5)CC4)cc3c2C(C)C)cc(C)n1 (stereo not drawn) [Example 413, 1-(4-(2-(2,6-dimethylpyridin-4-yl)-3-isopropyl-1H-indol-5-yl)piperidin-1-yl)-2-(methyl(tetrahydrofuran-3-yl)amino)ethan-1-one] |
| 30.8 | 0.104 | 0.0089 |  |  |  |  |  | Cc1cc(-c2[nH]c3ccc(C4CCN(C(=O)C5CCOCC5)CC4)cc3c2C(C)C)cc(C)n1 [Example 198, (4-(2-(2,6-dimethylpyridin-4-yl)-3-isopropyl-1H-indol-5-yl)piperidin-1-yl)(tetrahydro-2H-pyran-4-yl)methanone] |
| 0.835 | 0.0211 | 0.0101 |  |  |  |  |  | Cc1cc(-c2[nH]c3ccc(C4CCN(C(CF)CF)CC4)cc3c2C(C)C)cc(C)n1 [Example 473, 5-(1-(1,3-difluoropropan-2-yl)piperidin-4-yl)-2-(2,6-dimethylpyridin-4-yl)-3-isopropyl-1H-indole] |
| 0.833 | 0.152 | 0.0146 |  |  |  |  |  | Cc1cc(-c2[nH]c3ccc(C4CCN(C(=O)CN5C[C@@H](C(F)(F)F)C[C@H]5CO)CC4)cc3c2C(C)C)cc(C)n1 [Example 394, 1-(4-(2-(2,6-dimethylpyridin-4-yl)-3-isopropyl-1H-indol-5-yl)piperidin-1-yl)-2-((2S,4S)-2-(hydroxymethyl)-4-(trifluoromethyl)pyrrolidin-1-yl)ethan-1-one] |
| 0.697 | 0.0169 | 0.006 |  |  |  |  |  | Cc1cc(-c2[nH]c3ccc(C4CCN(CC(=O)N(C)C5CCOC5)CC4)cc3c2C(C)C)cc(C)n1 (stereo not drawn) [Example 289, 2-(4-(2-(2,6-dimethylpyridin-4-yl)-3-isopropyl-1H-indol-5-yl)piperidin-1-yl)-N-methyl-N-(tetrahydrofuran-3-yl)acetamide] |
| 0.358 | 0.0102 | 0.011 |  |  |  |  |  | Cc1cc(-c2[nH]c3ccc(C4CCN(C5CC(C)OC(C)C5)CC4)cc3c2C(C)C)cc(C)n1 (stereo not drawn) [Example 454, 2-(2,6-dimethylpyridin-4-yl)-5-(1-(2,6-dimethyltetrahydro-2H-pyran-4-yl)piperidin-4-yl)-3-isopropyl-1H-indole] |
| 0.512 | 0.011 | 0.0023 |  |  |  |  |  | Cc1cc(-c2[nH]c3ccc(C4CCN(CC(=O)NC5CCCOC5)CC4)cc3c2C(C)C)cc(C)n1 (stereo not drawn) [Example 279, 2-(4-(2-(2,6-dimethylpyridin-4-yl)-3-isopropyl-1H-indol-5-yl)piperidin-1-yl)-N-(tetrahydro-2H-pyran-3-yl)acetamide] |
| 0.604 | 0.013 | 0.0035 |  |  |  |  |  | Cc1cc(-c2[nH]c3ccc(C4CCN(CC(=O)N5CCC[C@@H](O)C5)CC4)cc3c2C(C)C)cc(C)n1 [Example 209, (R)-2-(4-(2-(2,6-dimethylpyridin-4-yl)-3-isopropyl-1H-indol-5-yl)piperidin-1-yl)-1-(3-hydroxypiperidin-1-yl)ethan-1-one] |
| > 50 | 0.0798 | 0.0005 |  |  |  |  |  | CC(=O)NCC(=O)N1CCC(c2ccc3[nH]c(-c4cc(C)nc(C)c4)c(C(C)C)c3c2)CC1 [Example 166, N-(2-(4-(2-(2,6-dimethylpyridin-4-yl)-3-isopropyl-1H-indol-5-yl)piperidin-1-yl)-2-oxoethyl)acetamide] |
|  |  | 0.0013 |  |  |  | 1.01 | 0.02 | Cc1cc(-c2[nH]c3ccc(C4CCNCC4(F)F)cc3c2C(C)C)cc(C)n1 (single isomer, unassigned) [Example 489B, 5-(3,3-difluoropiperidin-4-yl)-2-(2,6-dimethylpyridin-4-yl)-3-isopropyl-1H-indole] |
| 0.147 | 0.0032 | 0.0014 |  |  |  |  |  | Cc1cc(-c2[nH]c3ccc(C4CCN(CCC(N)=O)CC4)cc3c2C(C)C)cc(C)n1 [Example 314, 3-(4-(2-(2,6-dimethylpyridin-4-yl)-3-isopropyl-1H-indol-5-yl)piperidin-1-yl)propanamide] |
